Test results reported in patent US7001587B2, “Measurement of protein synthesis rates in humans and experimental systems by use of isotopically labeled water” (The Regents of the University of California, priority 2001, dated 2006).
Like-named read-outs stand apart in the source and are kept apart here.

Legend:
[1] = cited from earlier work
[2] = In vitro ^2H label exchange / label stability studies; type: physicochemical; conditions: acid-hydrolysis conditions used for proteins (6N HCl)
bone collagen = assay: Bone collagen synthesis rate (ks) in ovariectomized rats by ^2H2O labeling; type: in vivo; conditions: ovariectomized female rats, pellet 200 μg
Description: The fractional synthesis or replacement rate (ks) of proteins or peptides may be determined by application of the continuous labeling, precursor-product formula: [formula] where A^∞ represents the asymptotic or plateau value of the amino acid I.E. (isotopic enrichment) possible under the labeling conditions present and AA(protein)t represents the measured protein-bound amino acid at time t.
Ovariectomy was performed in adult female rodents as described (9). After allowing 3 weeks for recovery from surgery, the rats received either estradiol by subcutaneous pellet (200 μg) or sham placement of pellet. ^2H2O labeling was initiated at the time of pellet placement and continued for 2 weeks, at which time the animals were sacrificed and bone was collected.
Rats were killed every 1–2 weeks during a 10-week period of ^2H2O administration. The rear left femur was collected and was dissected free of soft tissue. Bone marrow and trabecular bone were removed using a needle with sharp cutting surface (ref: Bone 2000). After washing 3 times with water, the bone was splintered and powdered under liquid N2 in a Spex mill and defatted with chloroform:methanol (1:1, v:v). After drying, the powdered bone was subjected to acid hydrolysis in 6N HCl (110° C., 24 hr). The free AA were dried under N2 gas and derivatized for analysis by gas chromatography/mass spectrometry (GC/MS). […]

human subjects = assay: Tolerability of daily oral ^2H2O in human subjects; type: in vivo; conditions: human subjects (healthy and HIV/AIDS) drinking 50–100 ml daily for 10–12 weeks
rats = assay: Tolerability of 4% ^2H2O drinking water in rats; type: in vivo; conditions: rats given 4% ^2H2O as drinking water
[3] = system: humans and experimental animals; assay: Long-term maintenance of high body water ^2H2O enrichment, toxicity; type: in vivo; conditions: 1–5% of total body water labeled, weeks or months, >100 people and experimental animals
Source text: Relatively high body water enrichments of ^2H2O (e.g., 1–5% of the total body water is labeled) have been achieved using the techniques of the invention. […] This finding in a large number of human subjects (>100 people) is contrary to previous concerns about vestibular toxicities at high doses of ^2H2O. Applicants have discovered that as long as rapid changes in body water enrichment are prevented (e.g., by initial administration in small, divided doses), high body water enrichments of ^2H2O can be maintained with no toxicities. Previous dosing of ^2H2O in humans, for other purposes (e.g., measurement of fatty acid or cholesterol synthesis or gluconeogenesis) have typically used lower doses and achieved lower body water enrichment. The low expense of commercially available ^2H2O allows long-term maintenance of enrichments in the 1–5% range at relatively low expense (e.g., lower cost for 2 months labeling at 2% ^2H2O enrichment, and thus 7–8% enrichment in the alanine precursor pool (FIGS. 2A–B), than for 12 hours labeling of ^2H-leucine at 10% free leucine enrichment, and thus 7–8% enrichment in leucine precursor pool for that period).

[4] = rat, in vivo
Source text: The ^2H2O labeling protocol consisted of an initial intraperitoneal (ip) injection of 99.9% ^2H2O, to achieve ca. 2.5% body water enrichment (assuming total body water to be 60% of body weight) followed by administration of 4% ^2H2O in drinking water. For labeling of rats in utero, 4% drinking water was started while the male and female adult rats were housed together for mating (i.e. before pregnancy) and the 4% ^2H2O drinking water was continued through the pregnancy and post-delivery period.
The ^2H2O enrichment of body water was measured by a GC/MS technique that we have described elsewhere (Neese et al., Analytic Biochem 298(2):189–95, 2001). Briefly, the hydrogen atoms from water (10 μL) were chemically transferred to acetylene by reaction with calcium carbide in a sealed vial. Acetylene gas was then derivatized by injection into another sealed vial containing 0.5 ml Br2 (0.1 mM) dissolved in CCl4, followed by quenching of remaining Br2 with cyclohexene. The resulting tetrabromoethane was dissolved in CCl4 and was analyzed by GC/MS, using a DB-225 column (30 m, J&W, Folsom, Calif.) at 180° C., with methane chemical ionization (C.I.). The ions at m/z 265 and 266 were analyzed using selected ion monitoring. These ions represent the M0 and M1 mass isotopomers of the C2H2Br3^+ fragment (^79Br^79Br^81Br isotopologue). The enrichments of ^2H2O in water samples were calculated by comparison to standard curves generated by mixing 100% ^2H2O with unlabeled H2O in known proportions (Neese et al., Analytic Biochem 298(2):189–95, 2001).

Question: For ^2H-leucine, which half-life ([1]; in vivo) is on record?
Answer: Its half-life is under 30 min.

Question: With [2H]C([2H])(N)C(=O)O [^2H2-labeled glycine] as the compound, how does the “loss of ^2H-label” value [2] read?
Answer: Its value is “no loss of ^2H-label was observed”.

Question: With ^2H-glucose as the compound, how does the half-life ([1]; in vivo) read?
Answer: Its half-life is 20 min.

Question: Which “ks of bone collagen” value (bone collagen; 2 weeks ^2H2O labeling) does the source give for C[C@]12CC[C@@H]3c4ccc(O)cc4CC[C@H]3[C@@H]1CC[C@@H]2O [estrogen, estradiol] here?
Answer: Its value is 0.008 day⁻¹.

Question: And the “decrease in ks of bone collagen” value (bone collagen; 2 weeks, compared to vehicle-implanted ovariectomized rats)?
Answer: The value was 35–40%.

Question: For [2H]O[2H] [^2H2O], which “adverse effects or toxicities” value (human subjects) is on record?
Answer: The value was “No adverse effects or toxicities were observed”.

Question: What about the “growth and signs of toxicity” value (rats) of the same compound?
Answer: The value was “grew normally and exhibited no signs of toxicity”.

Question: And the “toxicity at maintained body water enrichment” value [3]?
Answer: Its value is “without any evidence of toxicity”.

Question: What about the “Body ^2H2O Enrichment (%)” value [4] of the same compound?
Answer: Its value is 2.6%.

Question: And the “measured ^2H2O enrichment in maternal blood” value [4]?
Answer: The value was 2.4%.

Question: What about the half-life ([1]; turnover of body water pool) of the same compound?
Answer: Its half-life is 14400 to 20200 min.

Question: With [2H]C(C)(N)C(=O)O (stereo not drawn) [^2H1-labeled alanine] as the compound, how does the “loss of ^2H-label” value [2] read?
Answer: The value was “no loss of ^2H-label was observed”.
